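Test compounds were applied to cells in 96-well plates for 48 hours at 5 doses. GI50 = concentration required for 50% inhibition of growth. Definition used: TGI = concentration required for complete inhibition of growth.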
Assays:
Assay in all cases: growth of human tumour cells (NCI), 48 h
[1] = tested on: KM12 colon
[2] = tested on: NCI-H522 lung
[3] = tested on: HL-60(TB) leukemia
[4] = tested on: MALME-3M melanoma
[5] = tested on: PC-3 prostate
[6] = tested on: K-562 leukemia
[7] = tested on: HCT-15 colon
[8] = tested on: NCI-H226 lung
[9] = tested on: SK-MEL-2 melanoma
[10] = tested on: TK-10 renal
[11] = tested on: SK-MEL-5 melanoma
[12] = tested on: SR leukemia
[13] = tested on: UACC-257 melanoma
[14] = tested on: HCC-2998 colon
[15] = tested on: BT-549 breast
[16] = tested on: NCI-H460 lung
[17] = tested on: NCI/ADR-RES ovarian
[18] = tested on: OVCAR-8 ovarian
[19] = tested on: SK-MEL-28 melanoma
[20] = tested on: HT29 colon
[21] = tested on: RXF 393 renal
[22] = tested on: UO-31 renal
[23] = tested on: DU-145 prostate
[24] = tested on: IGROV1 ovarian
[25] = tested on: SF-295 CNS
[26] = tested on: MDA-MB-231 breast
[27] = tested on: A498 renal
[28] = tested on: MCF7 breast
[29] = tested on: SF-268 CNS
[30] = tested on: NCI-H23 lung
[31] = tested on: COLO 205 colon
[32] = tested on: MOLT-4 leukemia
[33] = tested on: SN12C renal
[34] = tested on: SK-OV-3 ovarian
[35] = tested on: SF-539 CNS
[36] = tested on: EKVX NSCLC
[37] = tested on: M14 melanoma
[38] = tested on: SNB-75 CNS
[39] = tested on: SNB-19 CNS
[40] = tested on: UACC-62 melanoma
[41] = tested on: ACHN renal
[42] = tested on: CCRF-CEM leukemia
[43] = tested on: HOP-92 NSCLC
[44] = tested on: OVCAR-4 ovarian
[45] = tested on: RPMI-8226 leukemia
[46] = tested on: HS 578T breast
[47] = tested on: T-47D breast
[48] = tested on: MDA-MB-435
[49] = tested on: SW-620 colon
[50] = tested on: HCT-116 colon
[51] = tested on: OVCAR-5 ovarian
[52] = tested on: OVCAR-3 ovarian
[53] = tested on: CAKI-1 renal
[54] = tested on: LOX IMVI melanoma
[55] = tested on: A549 NSCLC
[56] = tested on: 786-0 renal
[57] = tested on: U251 CNS
[58] = tested on: HOP-62 NSCLC

Structure (SMILES): COc1cc(/C=C/C(=O)c2ccc(F)cc2)ccc1OCCCCCOc1cc2c(cc1OC)C(=O)N1CCCC1C=N2 (stereo not drawn)
- GI50 [1]: 14.7 nM
- TGI [1]: 50.1 nM
- GI50 [2]: 31.8 nM
- TGI [2]: 249 nM
- GI50 [3]: 40.5 nM
- GI50 [4]: 212 nM
- TGI [4]: 439 nM
- GI50 [5]: 20.8 nM
- TGI [5]: 215 nM
- GI50 [6]: 30.6 nM
- GI50 [7]: 58.8 nM
- TGI [7]: 1410 nM
- GI50 [8]: 49.3 nM
- TGI [8]: 1070 nM
- GI50 [9]: 62 nM
- TGI [9]: 1510 nM
- GI50 [10]: 123 nM
- TGI [10]: 981 nM
- GI50 [11]: 89.6 nM
- TGI [11]: 230 nM
- GI50 [12]: < 10 nM
- TGI [12]: < 11.3 nM
- GI50 [13]: 238 nM
- TGI [13]: 1170 nM
- GI50 [14]: < 17.4 nM
- TGI [14]: 38.2 nM
- GI50 [15]: 21.4 nM
- TGI [15]: 97.4 nM
- GI50 [16]: < 10 nM
- TGI [16]: 17.9 nM
- GI50 [17]: 239 nM
- TGI [17]: 2470 nM
- GI50 [18]: 25.3 nM
- TGI [18]: 3280 nM
- GI50 [19]: 194 nM
- TGI [19]: 473 nM
- GI50 [20]: < 16 nM
- TGI [20]: 1480 nM
- GI50 [21]: 110 nM
- TGI [21]: 283 nM
- GI50 [22]: 47.3 nM
- TGI [22]: 3640 nM
- GI50 [23]: 24.9 nM
- TGI [23]: 57.9 nM
- GI50 [24]: 64.6 nM
- TGI [24]: 11300 nM
- GI50 [25]: < 10 nM
- TGI [25]: < 10.8 nM
- GI50 [26]: 282 nM
- TGI [26]: 1960 nM
- GI50 [27]: 138 nM
- TGI [27]: 331 nM
- GI50 [28]: < 10 nM
- TGI [28]: 39.5 nM
- GI50 [29]: 17.7 nM
- TGI [29]: 61.3 nM
- GI50 [30]: 18.6 nM
- TGI [30]: 66.2 nM
- GI50 [31]: < 15.1 nM
- TGI [31]: 43 nM
- GI50 [32]: < 10 nM
- TGI [32]: 41.8 nM
- GI50 [33]: 33.5 nM
- TGI [33]: 2370 nM
- GI50 [34]: 212 nM
- TGI [34]: 6060 nM
- GI50 [35]: < 16.6 nM
- TGI [35]: 30.1 nM
- GI50 [36]: 151 nM
- TGI [36]: 601 nM
- GI50 [37]: 49.1 nM
- TGI [37]: 266 nM
- GI50 [38]: 34 nM
- TGI [38]: 187 nM
- GI50 [39]: < 22.3 nM
- TGI [39]: 3350 nM
- GI50 [40]: 58.2 nM
- TGI [40]: 222 nM
- GI50 [41]: 19.7 nM
- TGI [41]: 368 nM
- GI50 [42]: < 10 nM
- TGI [42]: 25.8 nM
- GI50 [43]: 158 nM
- TGI [43]: 575 nM
- GI50 [44]: 26.5 nM
- TGI [44]: > 100000 nM
- GI50 [45]: 10.1 nM
- TGI [45]: 38.3 nM
- GI50 [46]: 29.8 nM
- TGI [46]: 223 nM
- GI50 [47]: 23.1 nM
- TGI [47]: 1190 nM
- GI50 [48]: 33.9 nM
- TGI [48]: 145 nM

Structure (SMILES): CCN(CC)CC(O)COc1c(Br)c(Br)c(Br)c2c1OC(C)(C)C2 (stereo not drawn)
- GI50 [1]: 3690 nM
- TGI [1]: 13800 nM
- GI50 [49]: 2260 nM
- TGI [49]: 4920 nM
- GI50 [50]: 3850 nM
- TGI [50]: > 100000 nM
- GI50 [2]: 3420 nM
- TGI [2]: 14400 nM
- GI50 [3]: 1730 nM
- TGI [3]: 3530 nM
- GI50 [4]: 2280 nM
- TGI [4]: 5140 nM
- GI50 [5]: 2810 nM
- TGI [5]: 11500 nM
- GI50 [6]: 1730 nM
- TGI [6]: 3580 nM
- GI50 [7]: 4740 nM
- TGI [7]: 14700 nM
- GI50 [8]: 13500 nM
- TGI [8]: 40900 nM
- GI50 [9]: 3550 nM
- TGI [9]: 15400 nM
- GI50 [10]: 4190 nM
- TGI [10]: 14900 nM
- GI50 [11]: 1820 nM
- TGI [11]: 3240 nM
- GI50 [12]: 1750 nM
- TGI [12]: 3810 nM
- GI50 [13]: 2670 nM
- TGI [13]: 4870 nM
- GI50 [51]: 7680 nM
- TGI [51]: 23800 nM
- GI50 [14]: 3420 nM
- TGI [14]: 9230 nM
- GI50 [15]: 4500 nM
- TGI [15]: 17600 nM
- GI50 [52]: 3470 nM
- TGI [52]: 16300 nM
- GI50 [16]: 3280 nM
- TGI [16]: 11600 nM
- GI50 [53]: 6800 nM
- TGI [53]: 23800 nM
- GI50 [54]: 2080 nM
- TGI [54]: 3670 nM
- GI50 [17]: 7690 nM
- TGI [17]: 25500 nM
- GI50 [18]: 11400 nM
- TGI [18]: 36700 nM
- GI50 [19]: 1620 nM
- TGI [19]: 3240 nM
- GI50 [20]: 1820 nM
- TGI [20]: 3910 nM
- GI50 [55]: 3490 nM
- TGI [55]: 13500 nM
- GI50 [22]: 5820 nM
- TGI [22]: 26500 nM
- GI50 [23]: 5430 nM
- TGI [23]: 18100 nM
- GI50 [24]: 1910 nM
- TGI [24]: 5830 nM
- GI50 [25]: 1100 nM
- TGI [25]: 2710 nM
- GI50 [26]: 2440 nM
- TGI [26]: 6080 nM
- GI50 [27]: 4440 nM
- TGI [27]: 17300 nM
- GI50 [28]: 1920 nM
- TGI [28]: 4060 nM
- GI50 [29]: 8350 nM
- TGI [29]: 26300 nM
- GI50 [56]: 3130 nM
- TGI [56]: 11900 nM
- GI50 [30]: 9040 nM
- TGI [30]: 28900 nM
- GI50 [31]: 1980 nM
- TGI [31]: 5140 nM
- GI50 [57]: 4480 nM
- TGI [57]: 14800 nM
- GI50 [32]: 1670 nM
- TGI [32]: 3680 nM
- GI50 [33]: 6220 nM
- TGI [33]: 19800 nM
- GI50 [34]: 16700 nM
- TGI [34]: 36400 nM
- GI50 [35]: 4340 nM
- TGI [35]: 16400 nM
- GI50 [58]: 4030 nM
- TGI [58]: 19700 nM
- GI50 [36]: 3040 nM
- TGI [36]: 9640 nM
- GI50 [37]: 2010 nM
- TGI [37]: 4120 nM
- GI50 [38]: 5310 nM
- TGI [38]: 19400 nM
- GI50 [39]: 9220 nM
- TGI [39]: 33900 nM
- GI50 [40]: 1900 nM
- TGI [40]: 3470 nM
- GI50 [41]: 4940 nM
- TGI [41]: 16400 nM
- GI50 [42]: 1960 nM
- TGI [42]: 4080 nM
- GI50 [43]: 1350 nM
- TGI [43]: 6050 nM
- GI50 [44]: 6560 nM
- TGI [44]: 22800 nM
- GI50 [45]: 2010 nM
- TGI [45]: 4450 nM
- GI50 [46]: 4580 nM
- TGI [46]: 19000 nM
- GI50 [47]: 10600 nM
- TGI [47]: 41000 nM
- GI50 [48]: 2660 nM
- TGI [48]: 7310 nM

— PubChem BioAssay (NCI)
